Laboratory results taken from patent US12686674B2, “Crystal form of compound represented by formula I, and preparation therefor and application thereof” (Shanghai Zhimeng Biopharma, Inc., priority 2021, dated 2026).

Assay: Solid-state stability, placed open one and two weeks (HPLC purity, XRPD)
Type: physicochemical
Method: Purity tests (HPLC) and crystal form detection (XRPD) were performed on starting samples, samples stored for one week and two weeks.

O=C1CO[C@H](c2cn(-c3ccc(Br)cc3)nc2-c2ccc(F)cc2)N1CCc1ccc2[nH]c(=O)[nH]c2c1 [Crystal form A]
Purity(Area %) (1 week, 25° C./60% RH, open): 99.08 Area % | Purity(Area %) (1 week, 40° C./75% RH, open): 99.07 Area % | Purity(Area %) (1 week, 60° C., open): 99.09 Area % | change in Crystal form (XRPD) (1 week, 25° C./60% RH, 40° C./75% RH, 60° C.): Unchanged | Purity(Area %) (2 week, 25° C./60% RH, open): 99.12 Area % | Purity(Area %) (2 week, 40° C./75% RH, open): 99.14 Area % | Purity(Area %) (2 week, 60° C., open): 99.13 Area % | change in Crystal form (XRPD) (2 week, 25° C./60% RH, 40° C./75% RH, 60° C.): Unchanged | Purity(Area %) (Starting sample): 99.12 Area %
